Data on 17 compounds can be found in paper PMC4402242 (Chemico-biological interactions, 2014).

Series [1] deals with isolated renal cortical cells (IRCC). The series is described as follows: LDH release from isolated renal cortical cells. As to conditions: for Effect of pretreatment on 4-A2CP cytotoxicity: pretreatment concentration and time per Table 1; for direct nephrotoxic potential of the aminophenols in decreasing order / Cytotoxicity (LDH release) in words / LDH (% Release) 4-A2CP: IRCC; for direct nephrotoxic potential of the aminophenols in decreasing order: 0.5 and 1.0 mM; for direct nephrotoxic potential of the aminophenols in decreasing order / LDH (% Release) Pretreatment / LDH (% Release) 4-A2CP: 1 h; for Cytotoxicity (LDH release) in words: aminophenol 0.5 mM, 1 h (Fig. 2); for LDH (% Release) Pretreatment: pretreatment compound alone, plus 4-A2CP vehicle; for LDH (% Release) Pretreatment / LDH (% Release) 4-A2CP: mean ± S.E.; for LDH (% Release) 4-A2CP: % of total LDH. Background: LDH leaks from cells whose membrane has failed.

A further series relates to peroxidase. As to conditions: cited from earlier work.
The subject of series [2] is isolated renal cortical cells (IRCC).
Series [3] relates to Fischer 344 rat renal cortical slices. The settings on record: cited from earlier work.
Series [4] concerns Sprague-Dawley rat hepatocytes. The settings on record: cited from earlier work.
The subject of series [5] is rat renal proximal tubules. As to conditions: rat renal proximal tubules with hepatic subcellular fractions; cited from earlier work.
The next series deals with LLC-PK1 cells. As to conditions: cited from earlier work.

Values joined by “and” are separate entries in the source; they are usually repeats but may differ in a detail not shown here. Equal entries are not always repeated. Where two headings read alike, the source gives them in different places. Marks after values point to notes of the source that are not given here.

Turning to `O=C1O[C@H]([C@@H](O)CO)C(O)=C1O` [Ascorbate], the “Effect of pretreatment on 4-A2CP cytotoxicity” value (“Effect of pretreatment” below) in series [1] (4-A2CP 0.5 and 1.0 mM) is “attenuated”.
With `Nc1cc(Cl)c(O)c(Cl)c1` [4-A2,6DCP, 4-amino-2,6-dichlorophenol], in series [1], the “direct nephrotoxic potential of the aminophenols in decreasing order” value is on record as 4-A2,6DCP > 4-A2CP > 4-AP > 4-A3CP and the “Cytotoxicity (LDH release) in words” value is “marked cytotoxicity was observed”.
For the compound `CC(=O)N1CCN(c2ccc(OCC3COC(Cn4ccnc4)(c4ccc(Cl)cc4Cl)O3)cc2)CC1` (stereo not shown) [Ketoconazole], the “LDH (% Release) Pretreatment” value in series [1] (0.1 mM) is 22.4 ± 0.9% and 26.1 ± 1.7%.
In the case of `CCCCOCCOCCOCc1cc2c(cc1CCC)OCO2` [Piperonyl butoxide], the peroxidase inhibitor properties result in the series with peroxidase was “has peroxidase inhibitor properties”. The “Effect of pretreatment” value in series [1] (4-A2CP 0.5 and 1.0 mM) is on record as “attenuated”. Besides, the “LDH (% Release) Pretreatment” value in series [1] (1.0 mM) was 19.1 ± 2.5% and 25.0 ± 1.0%.
On to `c1ccc(Nc2ccc(Nc3ccccc3)cc2)cc1` [DPPD, N,N’-diphenyl-p-phenylenediamine], for which, in series [2], the “Effect of pretreatment” value is reported as “did not reduce”. For the same compound, the “Effect on 4-A2,6-DCP cytotoxicity” value in series [3] was “unable to attenuate”.
Consider `Nn1nnc2ccccc21` [1-aminobenzotriazole], for which the “Effect on 4-AP metabolism” value in series [4] was “did not alter”. For the same compound, the “Effect on 4-AP nephrotoxicity” value in series [5] is given as “did not alter”.
As for `NNC(=O)c1ccncc1` [Isoniazid], the “Effect of pretreatment” value in series [1] (4-A2CP 0.5 and 1.0 mM) was “No alteration”. The “LDH (% Release) Pretreatment” value in series [1] (1.0 mM) is 18.6 ± 0.7% and 20.7 ± 0.9%.
Turning to `Cc1cc(C(C)(C)C)c(O)c(C(C)(C)C)c1` [BHT, butylated hydroxytoluene], in the series on LLC-PK1 cells, the “Effect on 4-AP cytotoxicity” value is on record as “did not prevent”.
As for `Nc1ccc(O)cc1Cl` [4-A3CP, 4-amino-3-chlorophenol], in series [1], the “direct nephrotoxic potential of the aminophenols in decreasing order” value is reported as 4-A2,6DCP > 4-A2CP > 4-AP > 4-A3CP and the “Cytotoxicity (LDH release) in words” value is “Cytotoxicity was not observed”.
Turning to `Cc1c(C)c2c(c(C)c1O)CC[C@@](C)(CCC[C@H](C)CCC[C@H](C)CCCC(C)C)O2` [α-Tocopherol], in series [3], the “Effect on 4-A2,6-DCP cytotoxicity” value was “unable to attenuate”.
In the case of `O=C(O)CC(S)C(=O)O` (stereo not shown) [Mercaptosuccinate, mercaptosuccinic acid], the “Effect of pretreatment” value in series [2] was “attenuated”.
`Nc1ccc(O)c(Cl)c1` [4-A2CP, 4-amino-2-chlorophenol]: the “LDH (% Release) 4-A2CP” value in series [1] (4-A2CP 0.5 mM alone) is 33.0 ± 2.7 ^b % and 52.0 ± 2.5 ^b % and 39.5 ± 0.6 ^b % and 43.0 ± 1.4 ^b % and 38.3 ± 4.9 ^b % and 43.5 ± 3.2 ^b %; in series [1] (4-A2CP 1.0 mM alone), 42.6 ± 0.6 ^b % and 54.4 ± 2.3 ^b % and 51.3 ± 3.2 ^b % and 51.4 ± 4.9 ^b % and 53.9 ± 6.5 ^b % and 49.9 ± 4.3 ^b %. Moreover, the “direct nephrotoxic potential of the aminophenols in decreasing order” value in series [1] is given as 4-A2,6DCP > 4-A2CP > 4-AP > 4-A3CP. Besides, in series [1], the “Cytotoxicity (LDH release) in words” value was “marked cytotoxicity was observed”.
Regarding `CC(=O)N[C@@H](CS)C(=O)O` [N-Acetyl-L-cysteine], the “Effect of pretreatment” value in series [1] (4-A2CP 1.0 mM) is on record as “partially attenuated”.
In the case of `Cn1cc[nH]c1=S` [Methimazole], in series [1] (1.0 mM), the “LDH (% Release) Pretreatment” value is 22.0 ± 0.5% and 19.7 ± 2.2%.
As for `N[C@@H](CCC(=O)N[C@@H](CS)C(=O)NCC(=O)O)C(=O)O` [Glutathione], the “Effect of pretreatment” value in series [1] (4-A2CP 1.0 mM) is on record as “completely attenuated”.
As to `CC(C)(C(=O)c1cccnc1)c1cccnc1` [Metyrapone], in the series on peroxidase, the peroxidase inhibitor properties result is given as “but not metyrapone”. The “Effect of pretreatment” value in series [1] (4-A2CP 0.5 mM) is on record as “potentiated”; in series [1] (4-A2CP 1.0 mM), “no potentiation or attenuation”. In addition, in series [1] (1.0 mM), the “LDH (% Release) Pretreatment” value was 21.3 ± 0.6% and 20.6 ± 0.9%.
Take `CCCCCCCCN` [N-Octylamine]: in series [1] (4-A2CP 0.5 and 1.0 mM), the “Effect of pretreatment” value was “No alteration”. Besides, the “LDH (% Release) Pretreatment” value in series [1] (0.2 mM) is 27.5 ± 1.1% and 20.0 ± 0.9%.
